These are literature values, as cited in patent US5659037A, “Process for preparing chiral tetracyclic dopaminergic compounds” (Abbott Laboratories, priority 1995, dated 1997).

One data set deals with dopamine D1. To be noted: Nichols U.S. Pat. No. 5,047,536; WO 93/24462; Brewster et al. (1990).
A further data set has as its system adenylate cyclase. Conditions: Knoerzer et al., J. Med. Chem., 37:2453-60 (1994).
The conditions of data set [1]: Seeman, Pharmacol. Rev. 32:2:229 (1980).

On to `Cc1ccc2c(c1)[C@@H]1c3cc(O)c(O)cc3CC[C@H]1NC2` (relative stereo) [2-methyl derivative], for which the “dopamine D1 agonist activity” value in the data set with dopamine D1 was “potent and selective dopamine D1 agonists”.

Consider `Oc1cc2c(cc1O)[C@@H]1c3ccccc3CN[C@H]1CC2` (relative stereo) [dihydrexidine, trans-10,11-dihydroxy-5,6,6a,7,8,12b-hexahydrobenzo[a]phenanthridine], for which the “dopamine D1 agonist activity” value in the data set on dopamine D1 was “potent and selective dopamine D1 agonists”.

In the case of `Oc1cc2c(cc1O)[C@@H]1c3ccccc3CN[C@H]1CC2` [6aS,12bR-(-)-isomer], the “activity in an adenylate cyclase assay” value in the data set on adenylate cyclase was “inactive”.

For the compound `NC1CCc2cc(O)c(O)cc2C1` (stereo not shown) [ADTN, 2-amino-6,7-dihydroxy-1,2,3,4-tetrahydronaphthalene], in data set [1], the dopamine agonist activity result is given as “greatest activity in its chiral (R)-(+)-isomeric form”.
